Laboratory results as given in patent US20210330611A1, “THERAPY FOR NEUROLOGICAL DISEASES/DISORDERS” (priority 2020, published 2021).
Values joined by “and” are separate entries in the source; they are usually repeats but may differ in a detail not shown here. Identical values can stand only once. Like-named read-outs stand apart in the source and are kept apart here.

Columns and labels:
[1] = test system: fibrin-induced microglia activation; test: Image-based assay of fibrin-induced microglia activation (HTS and dose response); format: cell-based, rat; details: for IC50 / inhibition at 10 µM: Rattus norvegicus, Microglia; for inhibition at 10 µM: primary microglia HTS, fibrin stimulation, increased cell size (>800 μm^2) as marker of activation, read-out: Fibrin % inhibition
[2] = test system: LPS-induced microglia activation; test: Image-based assay of LPS-induced microglia activation (HTS and dose response); format: cell-based, rat; details: Rattus norvegicus, Microglia; for inhibition at 10 µM: primary microglia HTS, LPS stimulation, increased cell size (>800 μm^2) as marker of activation, read-out: LPS % inhibition
[3] = test system: fibrin- and LPS-induced microglia activation; test: cells; format: cell-based, rat; details: for inhibition at 10 µM: Rattus norvegicus
in vitro [4] = details: rat, Cell Toxicity IC50 (uM) [cFib assay]
in vitro [5] = details: rat
primary rat microglia [6] = test: Cell toxicity (dead cells, size <150 μm2) in LPS assay; details: for LPS % cell toxicity: primary microglia HTS, LPS stimulation, decreased size (<150 μm^2) as marker of toxicity; for IC50: read-out: Cell Toxicity IC50 (uM) [LPS assay], LPS assay
primary rat microglia [7] = test: Cell toxicity (dead cells, size <150 μm2) in coated fibrin (cFib) assay; details: primary microglia HTS, fibrin stimulation; decreased size (<150 μm^2) as marker of toxicity;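 on Fibrin % cell toxicity: share of dead cells sized under 150 µm2 at 10 µM in fibrin-stimulated microglia HTS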
[8] = 48 h, Table 1, dose response 0.001-20 μM, triplicates, primary rat microglia, 48 h, read-out: Fibrin IC50
[9] = Table 3, read-out: Fibrin IC50 (uM) (Suppl. Table 7)
[10] = dose response, fibrin-induced microglia activation, read-out: Fibrin IC50
[11] = fibrin-induced microglia activation, dose response, read-out: Fibrin IC50 (uM) (Suppl. Table 7)
[12] = listed as Medroxyprogesterone Ac
[13] = 48 h, Table 1, dose response 0.001-20 μM, triplicates, primary rat microglia, 48 h, read-out: LPS IC50
[14] = LPS-induced microglia activation, dose response, read-out: LPS IC50 (uM) (Suppl. Table 7)
[15] = Table 3, read-out: LPS IC50 (uM) (Suppl. Table 7)
[16] = dose response, LPS-induced microglia activation, read-out: LPS IC50
[17] = HTS of 1907 compounds, quadrant by fibrin and LPS inhibition
[18] = Microglia, Table 3, read-out: Cherry-picked Hit (Suppl. Table 7)
[19] = Microglia, HTS hit classification, read-out: Hit
[20] = quadrant by fibrin and LPS inhibition in HTS of 1907 compounds
[21] = hit classification in microglia HTS, read-out: Cherry-picked Hit (Suppl. Table 7)

`CC(=O)O[C@]1(C(C)=O)CC[C@H]2[C@@H]3C[C@H](C)C4=CC(=O)CC[C@]4(C)[C@H]3CC[C@@]21C` [Medroxyprogesterone acetate, reference compound] showed an IC50 [1, 8] of 0.3 µM, an IC50 [1, 9] of 0.3 µM and an IC50 ([1]; Table 6, read-out: Fibrin IC50 (uM) (Suppl. Table 7)) of 0.3 µM. It also gave an IC50 [1, 10] of 0.5 µM, an IC50 [1, 11] of 0.3 µM and an inhibition at 10 µM [1] of 72%. The “Fibrin Selectivity (LOG10)” value ([1]; fibrin vs LPS, LOG10, Table 6) was 1.84 and 1.61, the “Fibrin Selectivity” value ([1]; fibrin vs LPS, Table 6) was 70 and 41 and the “Fibrin Selectivity” value [1, 12] was 70 and 41. The “Fibrin Selectivity (LOG10)” value [1, 12] was 1.84 and 1.61, the “Fibrin Selectivity” value ([1]; listed as Medroxyprogesterone Acetate) was 70 and 41 and the IC50 [2, 13] was > 20 µM. For the same molecule, the inhibition at 10 µM ([2]; 48 h) was 56%, the IC50 [2, 14] was > 20 µM and the IC50 [2, 15] was > 20 µM. The IC50 ([2]; Table 6, read-out: LPS IC50 (uM) (Suppl. Table 7)) was > 20 µM, the IC50 [2, 16] was > 20 µM and the “Quadrant (FIG. 5b)” value [3, 17] was “Q2”. For the same molecule, the inhibition at 10 µM [3, 18] was > 50%, the inhibition at 10 µM [3, 19] was > 50% and the “Quadrant (FIG. 5b)” value ([3]; Table 1, screen at 10 μM) was “Q2”. For the same molecule, the “Quadrant (FIG. 5b)” value ([3]; Table 3, screen at 10 μM) was “Q2”, the “Quadrant (FIG. 5b)” value ([3]; microglia HTS, Table 6) was “Q2” and the “Quadrant (FIG. 5b)” value [3, 20] was “Q2”. For the same molecule, the IC50 (in vitro [4]; Table 3) was > 20 µM, the IC50 (in vitro [4]; cFib assay) was > 20 µM and the IC50 (in vitro [4]; cFib assay, Table 6) was > 20 µM. For the same molecule, the IC50 (in vitro [5]) was > 20 µM, the “LPS % cell toxicity” value (primary rat microglia [6]) was 1% and the IC50 (primary rat microglia [6]) was > 20 µM. The IC50 (primary rat microglia [6]; Table 6) was > 20 µM and the “Fibrin % cell toxicity” value (primary rat microglia [7]) was 1%.

`COc1c(C)c2c(c(O)c1C/C=C(\C)CCC(=O)OCCN1CCOCC1)C(=O)OC2` [Mycophenolate mofetil, reference compound] showed an IC50 [1, 8] of 2 µM, an IC50 [1, 10] of 2 µM and an IC50 [1, 11] of 2 µM. The inhibition at 10 µM [1] was 94%, the IC50 [2, 13] was 1 µM and the inhibition at 10 µM ([2]; 48 h) was 79%. The IC50 [2, 14] was 1 µM, the IC50 [2, 16] was 1 µM and the “Quadrant (FIG. 5b)” value [3, 17] was “Q2”. The inhibition at 10 µM [3, 19] was > 50%, the inhibition at 10 µM [3, 21] was > 50% and the “Quadrant (FIG. 5b)” value ([3]; Table 1, screen at 10 μM) was “Q2”. For the same molecule, the “Quadrant (FIG. 5b)” value [3, 20] was “Q2”, the IC50 (in vitro [4]; cFib assay) was > 20 µM and the IC50 (in vitro [5]) was > 20 µM. For the same molecule, the “LPS % cell toxicity” value (primary rat microglia [6]) was 2% and the “Fibrin % cell toxicity” value (primary rat microglia [7]) was 2%.

In the case of `C[C@H](N)[C@H](O)c1ccc(O)c(O)c1` [Levonordefrin, reference compound], the “Fibrin Selectivity” value [1] is reported as 21, the “Fibrin Selectivity (LOG10)” value [1] is reported as 1.33 and the IC50 [1, 8] is reported as 0.9 µM. The IC50 [1, 9] was 0.9 µM, the IC50 [1, 10] was 0.9 µM and the IC50 [1, 11] was 0.9 µM. For the same molecule, the inhibition at 10 µM [1] was 70%, the IC50 [2, 13] was > 20 µM and the inhibition at 10 µM ([2]; 48 h) was 36%. The IC50 [2, 14] was > 20 µM, the IC50 [2, 15] was > 20 µM and the IC50 [2, 16] was > 20 µM. For the same molecule, the “Quadrant (FIG. 5b)” value [3, 17] was “Q3”, the inhibition at 10 µM [3, 18] was > 50% and the inhibition at 10 µM [3, 19] was > 50%. For the same molecule, the “Quadrant (FIG. 5b)” value ([3]; Table 1, screen at 10 μM) was “Q3”, the “Quadrant (FIG. 5b)” value ([3]; Table 3, screen at 10 μM) was “Q3” and the “Quadrant (FIG. 5b)” value [3, 20] was “Q3”. For the same molecule, the IC50 (in vitro [4]; Table 3) was > 20 µM, the IC50 (in vitro [4]; cFib assay) was > 20 µM and the IC50 (in vitro [5]) was > 20 µM. The “LPS % cell toxicity” value (primary rat microglia [6]) was 0%, the IC50 (primary rat microglia [6]) was > 20 µM and the “Fibrin % cell toxicity” value (primary rat microglia [7]) was 1%.

`CCCCC(=O)O[C@]1(C(=O)CO)[C@@H](C)C[C@H]2[C@@H]3CCC4=CC(=O)C=C[C@]4(C)[C@@]3(F)[C@@H](O)C[C@@]21C` [Betamethasone valerate, reference compound] gave an IC50 [1, 8] of 20 µM, an IC50 [1, 10] of 20 µM and an IC50 [1, 11] of 20 µM. For the same molecule, the inhibition at 10 µM [1] was 69%, the IC50 [2, 13] was > 20 µM and the inhibition at 10 µM ([2]; 48 h) was 55%. For the same molecule, the IC50 [2, 14] was > 20 µM, the IC50 [2, 16] was > 20 µM and the “Quadrant (FIG. 5b)” value [3, 17] was “Q2”. For the same molecule, the inhibition at 10 µM [3, 19] was > 50%, the inhibition at 10 µM [3, 21] was > 50% and the “Quadrant (FIG. 5b)” value ([3]; Table 1, screen at 10 μM) was “Q2”. The “Quadrant (FIG. 5b)” value [3, 20] was “Q2”, the IC50 (in vitro [4]; cFib assay) was > 20 µM and the IC50 (in vitro [5]) was > 20 µM. For the same molecule, the “LPS % cell toxicity” value (primary rat microglia [6]) was 1% and the “Fibrin % cell toxicity” value (primary rat microglia [7]) was 1%.

Work on `C=N[C@@H](C(=O)N[C@@H]1C(=O)N2[C@@H]1SC(C)(C)[C@@H]2C(=O)O)c1ccccc1` [Metampicillin sodium, reference compound] yielded an IC50 [1, 8] of 20 µM, an IC50 [1, 10] of 20 µM and an IC50 [1, 11] of 20 µM. For the same molecule, the inhibition at 10 µM [1] was 68%, the IC50 [2, 13] was > 20 µM and the inhibition at 10 µM ([2]; 48 h) was 35%. For the same molecule, the IC50 [2, 14] was > 20 µM, the IC50 [2, 16] was > 20 µM and the “Quadrant (FIG. 5b)” value [3, 17] was “Q3”. The inhibition at 10 µM [3, 19] was > 50%, the inhibition at 10 µM [3, 21] was > 50% and the “Quadrant (FIG. 5b)” value ([3]; Table 1, screen at 10 μM) was “Q3”. For the same molecule, the “Quadrant (FIG. 5b)” value [3, 20] was “Q3”, the IC50 (in vitro [4]; cFib assay) was > 20 µM and the IC50 (in vitro [5]) was > 20 µM. The “LPS % cell toxicity” value (primary rat microglia [6]) was 0% and the “Fibrin % cell toxicity” value (primary rat microglia [7]) was 1%.
